Values quoted from earlier work as cited in US11697638B2, “5-methoxy-N,N-dimethyltryptamine crystalline forms” (Small Pharma Ltd, priority 2021, dated 2023).
Like-named read-outs stand apart in the source and are kept apart here.

Settings: self-report, uncontrolled setting

For `COc1ccc2[nH]cc(CCN(C)C)c2c1` [5-MeO-DMT, 5-methoxy-N,N-dimethyltryptamine], the “participants with psychiatric diagnoses indicating that their symptoms improved following 5-MeO-DMT use” value (“participants” below) (anxiety) is given as 69%, the “participants” value (depression) is given as 77% and the “participants” value (post-traumatic stress disorder) is given as 79%.
